Source: ChEMBL document CHEMBL5634191, “Vinylpyridine as a Tunable Covalent Warhead Targeting C797 in EGFR” (ACS Med Chem Lett, 2024)

Test: Lipophilicity, log D of the compound at pH 7.4
Assay type: physicochemical
Settings: buffer
In the case of `C=Cc1cccc(Oc2cc3c(Nc4cccc(Cl)c4F)ncnc3cc2OC)n1`, the logD is reported as 4.6. `COC/C=C/c1cc(Oc2cc3c(Nc4cccc(Cl)c4F)ncnc3cc2OC)ccn1` showed a logD of 4.2. `COc1cc2ncnc(Nc3cccc(Cl)c3F)c2cc1Oc1ccnc(/C=C/CN2CCOCC2)c1` gave a logD of 3.8. Work on `C=C(C)c1cc(Oc2cc3c(Nc4cccc(Cl)c4F)ncnc3cc2OC)ccn1` yielded a logD of 4.6. `C=Cc1ccnc(Oc2cc3c(Nc4cccc(Cl)c4F)ncnc3cc2OC)c1` showed a logD of 4.6. Work on `CN(C)C/C=C/C(=O)Nc1cc2c(Nc3ccc(F)c(Cl)c3)ncnc2cc1O[C@H]1CCOC1` [AFATINIB] yielded a logD of 3.6. Compound `COc1cc2ncnc(Nc3ccc(F)c(Cl)c3)c2cc1OCCCN1CCOCC1` [GEFITINIB] has a logD of 3.8. Work on `C=CC(=O)N1CCC(Oc2cc3c(Nc4ccc(Cl)c(Cl)c4F)ncnc3cc2OC)CC1` [POZIOTINIB] yielded a logD of 4.3.
